Assay results published in article PMC7357027 (Biomolecules, 2020).
Entries after “also recorded” stand apart in the source; their conditions may differ. Where two headings read alike, the source gives them in different places.

Biological target: neuraminidase from Clostridium perfringens (Clostridium perfringens, UniProt A0A0H2YQR1)
Assay type: biochemical
Details: for Type of Inhibition: Lineweaver-Burk plot

Chain of neuraminidase from Clostridium perfringens (A0A0H2YQR1 42-694 limits assumed): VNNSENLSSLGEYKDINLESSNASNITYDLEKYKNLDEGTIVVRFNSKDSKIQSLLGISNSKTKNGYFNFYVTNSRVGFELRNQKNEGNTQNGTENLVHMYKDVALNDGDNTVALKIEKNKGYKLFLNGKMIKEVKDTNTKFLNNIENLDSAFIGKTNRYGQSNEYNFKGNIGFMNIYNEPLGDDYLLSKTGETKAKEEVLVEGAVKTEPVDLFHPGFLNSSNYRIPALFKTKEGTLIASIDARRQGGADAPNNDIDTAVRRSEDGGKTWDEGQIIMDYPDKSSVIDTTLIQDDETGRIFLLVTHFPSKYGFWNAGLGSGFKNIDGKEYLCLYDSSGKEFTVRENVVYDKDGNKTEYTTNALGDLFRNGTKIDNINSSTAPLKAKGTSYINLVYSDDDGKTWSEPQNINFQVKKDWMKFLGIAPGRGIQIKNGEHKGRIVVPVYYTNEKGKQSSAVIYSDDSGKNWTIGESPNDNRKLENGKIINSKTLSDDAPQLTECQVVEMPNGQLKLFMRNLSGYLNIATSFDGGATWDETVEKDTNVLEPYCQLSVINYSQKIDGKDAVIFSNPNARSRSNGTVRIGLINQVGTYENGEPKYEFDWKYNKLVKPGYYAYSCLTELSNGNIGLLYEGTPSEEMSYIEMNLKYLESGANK

SMILES	Type of Inhibition	Type of Inhibition (listed as Bakkenolide D (2))	Type of Inhibition (listed as 5-O-Caffeoylquinic acid (4, 5-COQ))	Type of Inhibition (listed as 1,5-di-O-caffeoylquinic acid (3, 1,5-COQ))	reversibility of inhibition (remaining enzyme activity versus enzyme concentration at different inhibitor concentrations (Figure 2b))
C=C1COC(=O)[C@]12C[C@@]1(C)C([C@@H](OC(=O)/C=C\SC)CC[C@@H]1C)[C@H]2OC(C)=O (stereo partly shown) [compound 2, Bakkenolide D]	non-competitive inhibition	non-competitive inhibitor; also recorded: Noncompetitive			
O=C(/C=C/c1ccc(O)c(O)c1)O[C@@H]1C[C@](O)(C(=O)O)C[C@@H](O)[C@H]1O [compound 4, 5-O-Caffeoylquinic Acid]	competitive inhibitor		Competitive		
O=C(/C=C/c1ccc(O)c(O)c1)O[C@@H]1C[C@](OC(=O)/C=C/c2ccc(O)c(O)c2)(C(=O)O)C[C@@H](O)[C@H]1O [compound 3, 1,5-di-O-Caffeoylquinic Acid]	competitive inhibitor			Competitive	reversible inhibitor
